From patent US20090227619A1, “Harmine derivatives, intermediates used in their preparations, preparation processes and use therefo” (priority 2003, published 2009)
Read-outs that look alike come from different tables or passages of the source.

Experiments:
BGC-823 = test: In vitro cytotoxicity, IC50 by MTT method, BGC-823; assay type: cell-based; details: Homo sapiens, BGC-823; BGC823 cell strain; read-out: IC50 BGC823
Procedure, shortened: (§1)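 Cells in RPMI1640 with 10% FBS at 37° C, 5% CO2 were seeded at 10^5/ml and exposed to a compound concentration gradient for 48 h, at least three replicates, solvent controls.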

NIH3T3 = test: In vitro cytotoxicity, IC50 by MTT method, NIH3T3; assay type: cell-based; details: Mus musculus; NIH3T3 cell strain; read-out: IC50 NIH3T3
Procedure, shortened: as §1

Kunming mice = details: for Death rate: single i.p.
S180 sarcoma = details: S180 sarcoma; for Body weight of the animals, beginning, First time / Body weight of the animals, end, First time / Inhibition rate, First time / Weight of the tumor X ± SD, First time / Body weight of the animals, beginning, Second time / Body weight of the animals, end, Second time / Inhibition rate, Second time: ip × 10qd; for Inhibition rate (%) S180 sarcomata: comparison table 43, in vivo
Source text: (§2) There was one group of 8 to 10 mice C57BL/6 and Kunming mice for the anti-tumor tests and two groups of mice for negative control.
(§3) (3) Sources of tumors: Lewis lung cancer cells and S180 sarcoma in mice, which were sub-cultured and maintained by Pharmacological Center of Shanghai Pharmaceutical Industrial Research Institute.
(§4) All samples were weighed and added a small amount of Tween-80 to facilitate dissolution during the experiment, and then 0.5% CMC-Na solution was gradually added to achieve the desired concentration. The volume for experiment was 0.5 ml/20 g mouse.
(§5) The medicaments were intraperitoneally administered once a day continuously for 10 days.
(§6) For the negative control group, a vehicle of the same volume was intraperitoneally administered once a day continuously for 10 days. For the positive control group, CTX was administered in the dosage of 30 mg/kg once a day continuously for 7 days.
(§7) In vivo anti-tumor subcutaneous vaccination in the axilla was employed. Wildly grown tumor source was taken under sterile conditions to form a cell suspension of about 1×10^7 ml by homogenization method. For a corresponding mouse host, the suspension was injected in the axilla in an amount of 0.2 ml/mouse. The next day, the medicaments were administered according to the design of the tests. About three weeks later, all the groups of animals were executed. The tumors were taken from the animals and weighed. The inhibition rate of tumors was calculated according to the following formula:
(§8) T: average tumor weight of treated group; C: average tumor weight of negative control group.

PLA-801 = test: In vitro cytotoxicity, IC50 by MTT method, PLA-801; assay type: cell-based; details: PLA-801 cell strain; read-out: IC50 PLA-801
Procedure, shortened: as §1

CT-DNA = test: DNA thermal denaturation, determination of ΔTm; assay type: binding; details: 20 uM compound, Tm of CT-DNA alone 61° C.
Method: Experiments were carried out in PE buffer (1 mM Na2HPO4, 0.1 mM EDTA, pH 7.6) in a thermostatically controlled cell hold, and the quartz cuvette (1 cm path length) was heated by circulating water at a heating rate of 0.5° C./min from 25 to 95° C. Amsacrine and Doxorubicin Hydrochloride were used as standards. In all cases, the concentration of CT-DNA was 15 ug/ml. The ‘melting’ temperature Tm was taken as the mid-point of the hyperchromic transition.
ΔTm=Tm^drug-DNA complex−Tm^DNA alone
The ΔTm of each compound was calculated, Experiments were repeated three times, and an average value was calculated.

Bel-7402 = test: In vitro cytotoxicity, IC50 by MTT method, Bel-7402; assay type: cell-based; details: Homo sapiens, Bel-7402; Bel7402 cell strain; read-out: IC50 Bel7402
Procedure, shortened: as §1

Lovo = test: In vitro cytotoxicity, IC50 by MTT method, Lovo; assay type: cell-based; details: Homo sapiens; Lovo cell strain; read-out: IC50 Lovo
Procedure, shortened: as §1

Hela = test: In vitro cytotoxicity, IC50 by MTT method, Hela; assay type: cell-based; details: Homo sapiens; Hela cell strain; read-out: IC50 Hela
Procedure, shortened: as §1

Lewis lung cancer = details: for Body weight of the animals, end, First time / Body weight of the animals, end, Second time / Body weight of the animals, beginning, First time / Inhibition rate, First time / Weight of the tumor X ± SD, First time / Body weight of the animals, beginning, Second time / Inhibition rate, Second time / Weight of the tumor X ± SD, Second time / Inhibition rate (%) Lewis cancer: Lewis lung cancer; for Body weight of the animals, end, First time / Body weight of the animals, end, Second time: ip × 10qd; for Inhibition rate (%) Lewis cancer: comparison table 43, in vivo
Source text: as §2, §3, §4, §5, §6, §7, §8

in vivo = details: both, mouse, ip
HepG2 = test: In vitro cytotoxicity, IC50 by MTT method, HepG2; assay type: cell-based, human; details: Homo sapiens; HepG2 cell strain; read-out: IC50 HepG2
Procedure, shortened: as §1

[1] = 50% male 50% female mice, 240 mg/kg
[2] = 50% male 50% female mice, 300 mg/kg
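For Anti-tumor activity compared with harmine (compound 1) in this document: mice implanted subcutaneously in the axilla with Lewis lung tumor cells, treated starting the following day, killed roughly three weeks after implantation.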
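For Death rate in this document: acute toxicity in Kunming mice grouped by sex, one intraperitoneal dose at five graded levels in Tween-80 plus 0.5% CMC-Na, deaths monitored over two weeks.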
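For Inhibition rate (%) Lewis cancer in this document: mice implanted subcutaneously in the axilla with Lewis lung tumor cells, treated starting the following day, killed roughly three weeks after implantation.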
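For LD50 in this document: acute toxicity in Kunming mice grouped by sex, one intraperitoneal dose at five graded levels in Tween-80 plus 0.5% CMC-Na, deaths monitored over two weeks.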
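For MTD in this document: acute toxicity in Kunming mice grouped by sex, one intraperitoneal dose at five graded levels in Tween-80 plus 0.5% CMC-Na, deaths monitored over two weeks.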

## CCOC(=O)c1cc2c3ccccc3n(Cc3ccccc3)c2cn1 [Compound 33, ethyl 9-benzyl-β-carboline-3-carboxylate]
BGC-823
  IC50: 150 µM
NIH3T3
  IC50: 50 µM
Kunming mice; [1]
  Death rate: 50
Kunming mice; [2]
  Death rate: 90
Kunming mice; female mice, 240 mg/kg
  Death rate: 60
Kunming mice; female mice, 300 mg/kg
  Death rate: 100
Kunming mice; male mice, 240 mg/kg
  Death rate: 40
Kunming mice; male mice, 300 mg/kg
  Death rate: 80
Kunming mice; mouse, in vivo, ip
  LD50: 211 to 274 mg/kg
S180 sarcoma; Dosage 50 (mg/ml)
  Body weight of the animals, beginning, First time: 19.4 g
  Body weight of the animals, end, First time: 24.4 g
  Inhibition rate, First time: 33.33%
  Weight of the tumor X ± SD, First time: 1.78 ± 0.17 g
  Body weight of the animals, beginning, Second time: 18.7 g
  Body weight of the animals, end, Second time: 25.6 g
  Inhibition rate, Second time: 32.22%
S180 sarcoma; Dosage 50, ip × 10qd
  Weight of the tumor X ± SD, Second time: 1.83 ± 0.19 g
S180 sarcoma; Dosage 100 (mg/ml)
  Body weight of the animals, beginning, First time: 19.4 g
  Body weight of the animals, end, First time: 24.6 g
  Inhibition rate, First time: 42.70%
  Weight of the tumor X ± SD, First time: 1.53 ± 0.15 g
  Body weight of the animals, beginning, Second time: 18.6 g
  Body weight of the animals, end, Second time: 25.1 g
  Inhibition rate, Second time: 40.00%
S180 sarcoma; Dosage 100, ip × 10qd
  Weight of the tumor X ± SD, Second time: 1.62 ± 0.30 g
S180 sarcoma
  Inhibition rate (%) S180 sarcomata: 42.11%
PLA-801
  IC50: 170 µM
CT-DNA; CT-DNA 15 ug/ml, PE buffer pH 7.6
  ΔTm: −1.2 °C
CT-DNA; CT-DNA thermal denaturation
  ΔTm: −1.2 °C
Bel-7402
  IC50: 340 µM
Lovo
  IC50: 120 µM
Hela
  IC50: 10 µM
Lewis lung cancer; Dosage 50 (mg/ml)
  Body weight of the animals, end, First time: 25.4 g
  Body weight of the animals, end, Second time: 24.9 g
Lewis lung cancer; Dosage 50, ip × 10qd
  Body weight of the animals, beginning, First time: 20.3 g
  Inhibition rate, First time: 34.16%
  Weight of the tumor X ± SD, First time: 1.60 ± 0.09 g
  Body weight of the animals, beginning, Second time: 18.9 g
  Inhibition rate, Second time: 31.06%
  Weight of the tumor X ± SD, Second time: 2.02 ± 0.18 g
Lewis lung cancer; Dosage 100 (mg/ml)
  Body weight of the animals, end, First time: 24.7 g
  Body weight of the animals, end, Second time: 24.5 g
Lewis lung cancer; Dosage 100, ip × 10qd
  Body weight of the animals, beginning, First time: 19.9 g
  Inhibition rate, First time: 42.80%
  Weight of the tumor X ± SD, First time: 1.39 ± 0.15 g
  Body weight of the animals, beginning, Second time: 19.0 g
  Inhibition rate, Second time: 43.34%
  Weight of the tumor X ± SD, Second time: 1.66 ± 0.12 g
Lewis lung cancer
  Inhibition rate (%) Lewis cancer: 43.3%
In vivo; Kunming
  LD50 at 2 weeks: 240 mg/kg
HepG2
  IC50: 80 µM

## CCOC(=O)Nc1cc2c3ccccc3n(Cc3ccccc3)c2cn1 [Compound 55, 3-[(ethoxycarbonyl)amino]-9-benzyl-β-carboline]
BGC-823
  IC50: > 3000 µM
NIH3T3
  IC50: 1790 µM
Kunming mice; [1]
  Death rate: 0
Kunming mice; [2]
  Death rate: 50
Kunming mice; female mice, 240 mg/kg
  Death rate: 0
Kunming mice; female mice, 300 mg/kg
  Death rate: 60
Kunming mice; male mice, 240 mg/kg
  Death rate: 0
Kunming mice; male mice, 300 mg/kg
  Death rate: 40
S180 sarcoma; Dosage 50 (mg/ml)
  Body weight of the animals, beginning, First time: 19.8 g
  Body weight of the animals, end, First time: 27.0 g
  Inhibition rate, First time: 23.51%
  Weight of the tumor X ± SD, First time: 2.18 ± 0.23 g
  Body weight of the animals, beginning, Second time: 20.9 g
  Body weight of the animals, end, Second time: 24.8 g
  Inhibition rate, Second time: 20.00%
S180 sarcoma; Dosage 50, ip × 10qd
  Weight of the tumor X ± SD, Second time: 2.28 ± 0.18 g
S180 sarcoma; Dosage 100 (mg/ml)
  Body weight of the animals, beginning, First time: 19.4 g
  Body weight of the animals, end, First time: 26.7 g
  Inhibition rate, First time: 29.12%
  Weight of the tumor X ± SD, First time: 2.02 ± 0.22 g
  Body weight of the animals, beginning, Second time: 20.3 g
  Body weight of the animals, end, Second time: 24.9 g
  Inhibition rate, Second time: 28.07%
S180 sarcoma; Dosage 100, ip × 10qd
  Weight of the tumor X ± SD, Second time: 2.05 ± 0.17 g
S180 sarcoma
  Inhibition rate (%) S180 sarcomata: 29.12%
PLA-801
  IC50: 520 µM
Bel-7402
  IC50: 2440 µM
Lovo
  IC50: 2130 µM
Hela
  IC50: > 3000 µM
Lewis lung cancer; Lewis lung cancer in mice, among 22 compounds tested
  Anti-tumor activity compared with harmine (compound 1): a little worse than or equivalent to that of harmines
Lewis lung cancer; Dosage 50 (mg/ml)
  Body weight of the animals, end, First time: 23.8 g
  Body weight of the animals, end, Second time: 24.5 g
Lewis lung cancer; Dosage 50, ip × 10qd
  Body weight of the animals, beginning, First time: 18.7 g
  Inhibition rate, First time: 21.91%
  Weight of the tumor X ± SD, First time: 1.96 ± 0.12 g
  Body weight of the animals, beginning, Second time: 19.6 g
  Inhibition rate, Second time: 24.58%
  Weight of the tumor X ± SD, Second time: 1.78 ± 0.19 g
Lewis lung cancer; Dosage 100 (mg/ml)
  Body weight of the animals, end, First time: 23.5 g
  Body weight of the animals, end, Second time: 23.9 g
Lewis lung cancer; Dosage 100, ip × 10qd
  Body weight of the animals, beginning, First time: 19.1 g
  Inhibition rate, First time: 29.88%
  Weight of the tumor X ± SD, First time: 1.76 ± 0.10 g
  Body weight of the animals, beginning, Second time: 19.7 g
  Inhibition rate, Second time: 30.93%
  Weight of the tumor X ± SD, Second time: 1.63 ± 0.18 g
Lewis lung cancer
  Inhibition rate (%) Lewis cancer: 30.93%
In vivo
  MTD at 2 weeks: 240 mg/kg
HepG2
  IC50: > 3000 µM
